Our source for the IC50 values is patent US20200087258A1, “INHIBITOR OF CITRATE TRANSPORTER AND THEIR USE IN THERAPY” (Eternygen GmbH, priority 2017, published 2020).

Experiment [1] concerns the target INDY (Homo sapiens, UniProt Q86YT5). As to the kind of experiment: 14C-citrate uptake in HEK293 cells overexpressing recombinant human INDY (NaCT). Type of experiment: cell-based. Set-up: expressed in transfected cells; host or cells: HEK293. Put shortly: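 HEK293 cells overexpressing human NaCT, 50,000/well, preincubated 5-30 min at 37 °C with compound in pH 6.5 Na+ buffer. 14C-citrate ([…]) uptake then ran 20-90 min at 37 °C, followed by ice-cold washes, NaOH lysis and scintillation counting. 10 mM citrate served as positive control.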

For experiment [2], the target named is T1, GLT-1 (Homo sapiens, UniProt P43004).
T1 construct: host or cells: HEK293 (virus made in GP293 packaging cells)
The experiment in a line: 3H-glutamate uptake counter assay in HEK293 cells overexpressing human GLT-1. Type of experiment: cell-based. How it is done: The compound was obtained by screening of a library containing more than 50,000 lead-like compounds and fragments. The library was tested using a functional citrate uptake assay with HEK293 cells overexpressing recombinant human INDY. The following hit confirmation was conducted in the same assay system. To confirm the activity of selected compounds on the target INDY another cell assay was conducted. In this assay system citrate uptake was measured using HepG2 cells which endogenously express INDY. Furthermore selectivity of selected compounds was tested for two other transporters in different assay systems. The first transporter was the glutamate transporter GLT-1 tested in a glutamate uptake assays using HEK293 cells overexpressing recombinant human GLT-1. The second transporter was the glucose transporter GLUT1 tested in a glucose uptake assay using Huh-7 cells which endogenously express GLUT1. Compounds were considered to be selective with an at least 5-fold higher activity for INDY than for the other two transporters.
Cells were maintained in cell medium using cell culture grade flasks (CellSTACK Corning, 500 cm2 dishes or T175 depending on cell number). The selection antibiotic and G418 (800 μg/ml) was added during cultivation but not for seeding into assay plates. For splitting, cells were washed with PBS (w/o Ca2+, Mg2+, phenol red) and detached with Trypsin/EDTA. Throughout cultivation cells were kept sub-confluent. Detached cells (50,000 cells/well) were seeded in 96-well plates (white, clear bottom from Corning #655098) and incubated over night before usage in the assay. The following media were used. For HEK293 cells expressing INDY MEM (PAA)+10% FCS+1×P/S+2 mM L-Gln; for HEK293 cells expressing GLT-1 DMEM (Gibco)+10% FCS+400 µg/ml G418; for Huh7 cells DMEM (Gibco)+10% FCS+2 mM L-Gin (+1×P/S); for HepG2 cells MEM (PAA, Cat # E15-024)+10% FCS+2 mM L-Gin+1×NEAA+1 mM Na-Pyruvat
The following assay buffers for the particular uptake reaction were used. Citrate uptake buffer: 120 mM NaCl, 5.4 mM KCl, 0.8 mM MgSO4, 5 mM glucose, 1.8 mM CaCl2, 25 mM Hepes, 25 mM MES, pH 6.5. Glutamate uptake buffer: HBSS, 1 mM CaCl2, 1 mM MgCl2, 20 mM Hepes pH 7.4. Glucose uptake buffer: 25 mM Hepes+25 mM MES pH 7.4, 120 mM NaCl, 5.4 mM KCl, 1.8 mM CaCl2, 0.8 mM MgSO4.
As a counter assay, Glutamate uptake by the GLT-1 transporter was used. The principle of the assay is to measure the uptake of ^3H labelled glutamate into HEK cells, which overexpress human GLT-1.
The generation of a GLT-1 cell line was performed as follows: human GLT11 isoform sv1 cDNA (Origene # RC223924) was cloned into vector pFB-Neo-CMV-hGLT1 using QIAfilter Plasmid Midi Kit (Qiagen). Virus was generated in GP293 packaging cells (transfection of plasmid with Lipofectamine 2000+OptiMEM). For transfection into HEK cells GP293, supernatant containing virus was passed through a 0.45 micron sterile filter and DEAE-dextran was added at […] final concentration. The solution was used to transfect HEK293 cells at 37° C., 8.5% CO2. After 24 h selection marker G418 at 400 μg/ml was added and cultivation medium performed in DMEM 10% FBS.
The assay was performed in a 96-well format using repeated washing steps, cell lysis and addition of scintillation fluid. Assay buffer was HBSS, 1 mM CaCl2, 1 mM MgCl2, […] pH 7.4. Cells were seeded into white clear-bottom 96-well plates (50,000/well) in the presence of Poly-D-Lysine and incubated at 37° C. for 16-24 hours. Subsequently the plates were washed once with assay buffer using automated washing/LS 405 Selectors, BioTek ending with a buffer volume of 40 μl. Then 5 μl of compound solution in assay buffer was added and incubated for 20 min at 37° C. in cell incubator, HERA cell Heraeus. Afterwards 10 μl of substrate 3H-Glu (3 nM) were added and incubated for another 20 min at 37° C. in cell incubator, HERAcell. Then the plates were washed once with 200 μl cold assay buffer and 150 μl scintillation fluid was added. […]

The structures appear in SMILES notation.

T1 sequence (P43004 whole entry): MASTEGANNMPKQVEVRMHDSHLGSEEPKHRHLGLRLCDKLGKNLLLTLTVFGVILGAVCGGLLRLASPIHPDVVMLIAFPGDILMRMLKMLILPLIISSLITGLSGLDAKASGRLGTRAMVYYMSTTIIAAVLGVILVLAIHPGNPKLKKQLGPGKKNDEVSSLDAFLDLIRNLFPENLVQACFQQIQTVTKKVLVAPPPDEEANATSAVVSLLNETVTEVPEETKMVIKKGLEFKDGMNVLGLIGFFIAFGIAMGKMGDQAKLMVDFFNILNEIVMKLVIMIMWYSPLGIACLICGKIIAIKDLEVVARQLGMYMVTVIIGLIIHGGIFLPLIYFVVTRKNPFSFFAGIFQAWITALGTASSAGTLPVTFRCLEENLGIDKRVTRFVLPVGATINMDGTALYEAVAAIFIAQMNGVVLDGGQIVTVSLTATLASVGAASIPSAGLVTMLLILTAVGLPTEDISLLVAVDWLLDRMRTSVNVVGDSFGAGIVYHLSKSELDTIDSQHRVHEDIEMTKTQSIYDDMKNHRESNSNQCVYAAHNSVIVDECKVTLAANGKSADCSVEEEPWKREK
Sequence of INDY (Q86YT5 whole entry): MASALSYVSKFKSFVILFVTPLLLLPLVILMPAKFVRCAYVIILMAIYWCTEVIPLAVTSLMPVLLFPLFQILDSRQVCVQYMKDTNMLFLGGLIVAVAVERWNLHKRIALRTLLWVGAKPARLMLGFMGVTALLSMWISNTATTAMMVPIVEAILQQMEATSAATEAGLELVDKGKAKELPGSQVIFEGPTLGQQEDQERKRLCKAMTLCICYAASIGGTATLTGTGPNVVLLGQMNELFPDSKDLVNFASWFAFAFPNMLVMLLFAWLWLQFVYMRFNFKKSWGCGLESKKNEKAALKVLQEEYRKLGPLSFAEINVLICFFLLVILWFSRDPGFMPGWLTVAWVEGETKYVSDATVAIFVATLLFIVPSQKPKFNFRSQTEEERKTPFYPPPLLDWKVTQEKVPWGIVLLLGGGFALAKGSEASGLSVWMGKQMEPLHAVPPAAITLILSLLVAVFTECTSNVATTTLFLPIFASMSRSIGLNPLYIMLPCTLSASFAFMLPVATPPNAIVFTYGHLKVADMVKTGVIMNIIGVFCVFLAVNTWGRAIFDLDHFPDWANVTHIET

In general, IC50 refers to the concentration at which inhibition is half-maximal. As for `O=C(NCc1ccccn1)C1CCN(S(=O)(=O)c2cc(Cl)cc(Cl)c2)CC1` [Example 55, 1-(3,5-dichlorobenzenesulfonyl)-N-[(pyridin-2-yl)methyl]piperidine-4-carboxamide], the IC50 in experiment [1] is 0.8 µM; in experiment [2], over 20 µM.

Regarding `O=C(NCc1ccccc1F)C1CCN(S(=O)(=O)c2ccc(C(F)(F)F)cc2)CC1` [Example 25, N-[(2-fluorophenyl)methyl]-1-[4-(trifluoromethyl)benzenesulfonyl]piperidine-4-carboxamide], the IC50 in experiment [1] and in experiment [2] was over 20 µM throughout.

For the compound `O=C(NCc1ccccn1)C1CCN(S(=O)(=O)c2ccc(C(F)(F)F)cc2)CC1` [Example 57, N-[(pyridin-2-yl)methyl]-1-[4-(trifluoromethyl)benzenesulfonyl]piperidine-4-carboxamide], the IC50 is 4.1 µM in experiment [1] and over 20 µM in experiment [2].

Consider `CC(C)(C)c1ccc(S(=O)(=O)N2CCC(C(=O)NCc3ccccc3F)CC2)cc1` [Example 12, 1-(4-tert-butylbenzenesulfonyl)-N-[(2-fluorophenyl)methyl]piperidine-4-carboxamide], for which the IC50 in experiment [1] is 0.2 µM; in experiment [2], over 20 µM.

Turning to `O=C(NCc1ccccc1F)C1CCN(S(=O)(=O)c2cc(Cl)cc(Cl)c2)CC1` [Example 44, 1-(3,5-dichlorobenzenesulfonyl)-N-[(2-fluorophenyl)methyl]piperidine-4-carboxamide], the IC50 in experiment [1] was 0.1 µM; in experiment [2], over 20 µM.

As for `O=C(NCc1ccccn1)C1CCN(S(=O)(=O)c2ccc(S(F)(F)(F)(F)F)cc2)CC1` [Example 86, 1-[4-(pentafluoro-lambda6-sulfanyl)benzenesulfonyl]-N-[(pyridin-2-yl)methyl]pipendine-4-carboxamide], the values for the IC50 in experiment [1] and in experiment [2] were 1.1 µM and over 20 µM, respectively.

Regarding `COc1ccccc1CNC(=O)C1CN(S(=O)(=O)c2ccc(C(C)(C)C)cc2)C1` [Example 50, 1-(4-tert-butylbenzenesulfonyl)-N-[(2-methoxyphenyl)methyl]azetidine-3-carboxamide], the IC50 is 4.4 µM in experiment [1] and over 20 µM in experiment [2].

As to `O=C(NCc1ccccc1CO)C1CCN(S(=O)(=O)c2cc(Cl)cc(Cl)c2)CC1` [Example 87, 1-(3,5-dichlorobenzenesulfonyl)-N-{[2-(hydroxymethyl)phenyl]methyl}piperidine-4-carboxamide], the IC50 is 0.6 µM in experiment [1] and over 20 µM in experiment [2].

As to `O=C(NCc1ccccn1)C1CCN(S(=O)(=O)c2cc(Cl)cc(C3CC3)c2)CC1` [Example 101, 1-(3-chloro-5-cyclopropylbenzenesulfonyl)-N-[(pyridin-2-yl)methyl]piperidine-4-carboxamide], the figures for the IC50 in experiment [1] and in experiment [2] were 0.3 µM and over 20 µM, respectively.

As to `O=C(NCc1ccccc1F)C1CCN(S(=O)(=O)/C=C/c2ccccc2)CC1` [Example 5], the IC50 is 2.9 µM in experiment [1] and over 50 µM in experiment [2].
